Format in all cases: in vivo, human
Test [1] concerns MS patients in the relapsing and remitting course of the disease (RRMS). As to the kind of experiment: Slope of cortical atrophy at six months as a function of CE lesion number. To be noted: n=70. Here is the method:
To evaluate the connection between the reduction in cortical volume loss and CHS-131 treatment, cortical volume was compared to observed CE lesion in the MS patients. […] The slopes of cortical atrophy at six months as a function of CE lesion number at six months was plotted for the placebo group (n=69), the CHS-131 1 mg/day group (n=70), and the CHS-131 3 mg/day group (n=70). For the placebo, 1 mg/day, and 3 mg/day groups the slopes were: −0.040391, −0.019631, and −0.001783, respectively. […] Thus, the reduction in CE lesions as a result of CHS-131 treatment is correlated with a reduction in the loss of cortical volume in MS patients.

For test [2] the test system is unchanged. The experiment in a line: Phase 2 trial: annualized confirmed relapse rate (ARR). Here is the method: The study enrolled MS patients in the relapsing and remitting course of the disease (RRMS) who had been diagnosed within ≤3 years of enrollment. Patients had to be treatment-naïve, have ≥1 gadolinium-positive lesion within 12 months of enrollment, and have an Expanded Disability Status Score (EDSS) of 0-6 at screening. Part 1 was a double-blind, parallel-group, 6-month study. Patients were randomized to oral CHS-131 at 3 mg or 1 mg or placebo in a 1:1:1 ratio at 21 sites in Russia. Monthly MRIs were read in a blinded fashion at the Buffalo Neuroimaging and Analysis Center, Buffalo, N.Y., USA. Part 2 is an open label, 6-month, safety extension study, in which all subjects transition to 1 mg CHS-131 daily, to evaluate clinical response, CE lesions on MM, and safety. The ARR was lower for both 3 mg CHS-131 (0.26) and 1 mg (0.28) as compared with placebo (0.35). Thus, administering CHS-131 reduces the rate at which relapses of worsening neurological function (e.g. flare-ups or exacerbations) occur. Put otherwise, administration of CHS-131 increases the time between relapses.

For test [3] the test system is unchanged. The experiment in a line: Phase 2 trial: new and enlarged T2 lesions over 6 months. To be noted: for mean number of new and enlarged T2 lesions over 6 months: n=76. Here is the method:
A Phase 2, randomized, double-blind, placebo-controlled, multi-center clinical trial of CHS-131 for the treatment of multiple sclerosis (MS) was conducted. The primary endpoint was the number of new gadolinium contrast-enhancing (CE) T1-weighted lesions on monthly MRI over 6 months. The study enrolled MS patients in the relapsing and remitting course of the disease (RRMS) who had been diagnosed within ≤3 years of enrollment. Patients had to be treatment-naïve, have ≥1 gadolinium-positive lesion within 12 months of enrollment, and have an Expanded Disability Status Score (EDSS) of 0-6 at screening. Part 1 was a double-blind, parallel-group, 6-month study. Patients were randomized to oral CHS-131 at 3 mg or 1 mg or placebo in a 1:1:1 ratio at 21 sites in Russia. Monthly MRIs were read in a blinded fashion at the Buffalo Neuroimaging and Analysis Center, Buffalo, N.Y., USA. Part 2 is an open label, 6-month, safety extension study, in which all subjects transition to 1 mg CHS-131 daily, to evaluate clinical response, CE lesions on MM, and safety. The mean number of new and enlarged lesions over 6 months was 3.43 for 3 mg CHS131 (n=76), 4.21 for 1 mg CHS131 (n=76), and 4.89 for placebo (n=74). The response was dose-dependent.

Regarding `O=S(=O)(Nc1cc(Cl)c(Oc2cnc3ccccc3c2)c(Cl)c1)c1ccc(Cl)cc1Cl` [CHS-131], the “slope of cortical atrophy at six months as a function of CE lesion number” value in test [1] (1 mg/day) is recorded as −0.01963; in test [1] (3 mg/day) it was −0.001783. The “Annualized Confirmed Relapse Rate (ARR)” value in test [2] (1 mg) stood at 0.28; in test [2] (3 mg) it was 0.26. Moreover, the “reduction in T2 lesions compared to placebo (LSMeans analysis)” value in test [3] (1 mg) was 14%; in test [3] (3 mg, p=0.0767) it was 30%. The “mean number of new and enlarged T2 lesions over 6 months” value is reported as 4.21 in test [3] (1 mg) and 3.43 in test [3] (3 mg).

The values are drawn from patent US20190224186A1, “TREATMENT OF MULTIPLE SCLEROSIS WITH CHS-131” (InteKrin Therapeutics, Inc., priority 2016, published 2019).
